Reference: the SangsterLogP compilation

| SMILES | logP |
| --- | --- |
| C=C(C)C(=O)OC | 0.79 |
| Cc1ccc(N(CCO)CCO)cc1 | 1.09 |
| C=Cc1ccc(C(=O)O)cc1 | 2.18 |
| C=C(C)C(=O)OCC(C)(O)COc1cccc2ccccc12 (stereo unspecified) | 3.77 |
| C=C(C)C(=O)OCC(O)COc1cccc2ccccc12 (stereo unspecified) | 3.31 |
| O=C(OOC(=O)c1ccccc1)c1ccccc1 | 3.46 |
| C=C(C)C(=O)OCCOCCOCCOC(=O)C(=C)C | 1.88 |
| C=C(C)C(=O)OCC(CC)CCCC (stereo unspecified) | 4.67 |
| C=C(C)C(=O)OCC(O)COc1ccccc1 (stereo unspecified) | 2.18 |
| COC(C(=O)c1ccccc1)c1ccccc1 (stereo unspecified) | 1.38 |
| C=C(C)C(=O)OCC | 1.5 |
